Results from publication PMC11931565, “Exploring medium and long arm extensions of 1,2,4-triazole derivatives as Candida albicans 14α-demethylase (CYP51) inhibitors” (RSC Medicinal Chemistry, 2025).
Converted amounts (≈) assume the structure as drawn. Read-outs that look alike come from different tables or passages of the source. Numbered stars: 1 amine (or outer) side, 2 acyl side, 3 side chain; on linkers, the order of the positions; unused ones are H or OH. Bridge positions count the residues as written; N and C are the ends. Square brackets hold non-standard residues; d marks the D form. Peptide text beside a SMILES is read from it. * marks the point of attachment. hTyr(3S-OH,4S-OH,3'-OSO3H) = N[C@H](C(=O)O)[C@H](O)[C@@H](O)c1ccc(O)c(OS(=O)(=O)O)c1; Orn(4R-OH,5R-OH) = O=C([C@H](C[C@@H](O)[C@@H](O)N[*:3])N[*:1])[*:2]; Pro(3S-OH,4S-Me) = C[C@H]1CN[C@H](C(=O)O)[C@H]1O; X1 = CCCCCOc1ccc(-c2cc(-c3ccc(C(=O)*)cc3)no2)cc1; Gln(3R-OH) = NC(=O)C[C@@H](O)[C@H](N)C(=O)O; Hyp = O=C(O)[C@@H]1C[C@@H](O)CN1

Columns and labels:
[1] = test system: C. albicans wild-type clinical isolate CA14; test: C. albicans susceptibility testing (CLSI broth microdilution MIC), strain CA14; type: cell-based, Candida albicans; settings: Candida albicans, RPMI 1640, 37 °C, read at 48 h
From the text: (§1) Each novel compound was screened against C. albicans wild-type clinical isolate CA14 and C. albicans laboratory strain SC5314 using the standardised CLSI M27-S4 broth dilution method.[28] […] This might be explained by the clog P data as the more lipophilic compounds should more readily penetrate the fungal membrane resulting in improved uptake or may relate to optimal fill of the small hydrophobic pocket leading to improved binding.
(§2) Antifungal MIC values were obtained according to the CLSI microdilution method for yeasts.[28]C. albicans strains CA14 and SC5314 were tested in triplicate. Cultures were diluted to 2.5 × 10^3 cells per mL in RPMI 1640 (Sigma), buffered with 0.165 M MOPS, pH 7.0. Antifungal compounds were dissolved in DMSO and added at a final concentration of 1% v/v DMSO. Plates were incubated at 37 °C and read at 48 h.

[2] = test system: C. albicans laboratory strain SC5314; test: C. albicans susceptibility testing (CLSI broth microdilution MIC), strain SC5314; type: cell-based, Candida albicans; settings: Candida albicans, SC5314, 48 h, RPMI 1640, 37 °C, read at 48 h
From the text: as §1, §2

[3] = target: T1, C. albicans CYP51 (CaCYP51) (Candida albicans, UniProt P10613); test: CaCYP51 reconstitution assay (IC50); type: biochemical; settings: 1 μM CaCYP51, 60 μM lanosterol, 15 min at 37 °C
T1 construct: made in house; host or cells: E. coli
T1 sequence (P10613 whole entry): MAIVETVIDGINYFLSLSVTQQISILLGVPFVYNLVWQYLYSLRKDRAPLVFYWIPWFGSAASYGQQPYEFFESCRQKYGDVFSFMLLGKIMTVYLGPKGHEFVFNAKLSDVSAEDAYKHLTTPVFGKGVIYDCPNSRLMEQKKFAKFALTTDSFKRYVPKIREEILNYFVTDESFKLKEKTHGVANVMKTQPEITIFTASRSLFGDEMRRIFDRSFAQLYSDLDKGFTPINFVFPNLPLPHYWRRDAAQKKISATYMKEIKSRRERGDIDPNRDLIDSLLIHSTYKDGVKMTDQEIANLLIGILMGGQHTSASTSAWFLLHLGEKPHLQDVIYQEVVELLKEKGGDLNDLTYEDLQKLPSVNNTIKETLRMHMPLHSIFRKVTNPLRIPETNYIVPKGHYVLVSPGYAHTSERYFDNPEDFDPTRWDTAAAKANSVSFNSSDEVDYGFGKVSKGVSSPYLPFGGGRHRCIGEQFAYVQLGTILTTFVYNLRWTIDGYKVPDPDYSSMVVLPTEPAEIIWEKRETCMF
Experimental: Derivatives with a MIC <1 μg mL^−1 were chosen for IC50 testing.
C. albicans CYP51 was overexpressed in E. coli and purified and CaCYP51 reconstitutions assays performed.[10,37] The final reaction volume of 500 μL, contained; 1 μM C. albicans CYP51, 2 μM Homo sapiens cytochrome P450 reductase (CPR) (UniProtKB accession number P16435), 60 μM lanosterol, 50 μM dilaurylphosphatidylcholine, 4% w/v 2-hydroypropyl-cyclodextrin, 0.4 mg mL^−1 isocitrate dehydrogenase, 25 mM trisodium isocitrate, 50 mM NaCl, 5 mM MgCl2, and 40 mM MOPS (morpholinepropanesulfonic acid, pH 7.2). Antifungal compounds were added in 2.5 μL DMSO. The reaction was started by the addition of 4 mM NADPH-tetrasodium salt. Samples were shaken for 15 min at 37 °C and sterol metabolites extracted with ethyl acetate and derivatised with BSTFA.

[4] = target: T2, native CaCYP51 (Candida albicans, UniProt P10613); test: CaCYP51 type II ligand binding affinity (Kd) from difference spectra saturation curves; settings: 2.5 μM native CaCYP51; mean ± SD of three titrations; read-out: K d
T2 construct: made in house; host or cells: E. coli
T2 sequence (P10613 whole entry): as above
Experimental: Azole titration was performed in triplicate.
The ligand–CaCYP51 complex was determined by non-linear regression (Levenberg–Marquardt algorithm) using a rearrangement of the Morrison equation for tight ligand binding,[38] while weak ligand binding was calculated by the Michaelis–Menten equation. Curve fitting for novel azole saturation curves was performed using the computer program ProFit 6.1.12 (QuantumSoft, Zurich, Switzerland) for Mac OSX. Kd values were determined for each of the three replicate titrations per azole compound and then mean Kd values and standard deviations calculated.

[5] = test system: S. cerevisiae Y525 overexpressing C. albicans MFS transporter MDR1a; test: MIC, recombinant S. cerevisiae strain Y525 CaMDR1a; type: cell-based; settings: SD medium pH 6.8, 30 °C; 80% inhibition of growth
Experimental: (§3) Minimum inhibitory concentration (MIC) were determined according to recommendations outlined in the Clinical and Laboratory Standards Institute (CLSI) document M27-Ed4E[39] with modifications. Sabouraud dextrose (SD) medium (pH 6.8) was used instead of RPMI-1640 for inoculum and growth of the S. cerevisiae strains and cultures were incubated at 30 °C. […] Stock solutions of each agent were prepared in DMSO and the final concentration of DMSO was 1% (v/v) in SD. […] The final concentration of all other compounds ranged from 0.03–16 μg mL^−1. Three biological repeats were performed.

[6] = test system: S. cerevisiae Y2300 overexpressed wild-type ScCYP51; test: MIC, recombinant S. cerevisiae strain Y2300 ScCYP51; type: cell-based; settings: Saccharomyces cerevisiae
Experimental: (§4) The most promising thiazole derivative 7b, and the extended amide derivatives 13a and 13b were evaluated against a panel of recombinant S. cerevisiae strains[24,31,32] expressing control levels of wild-type CYP51 (ScCYP51), overexpressed wild-type ScCYP51, overexpressed azole-resistant ScCYP51 Y140F/H mutations (S. cerevisiae Y140 equivalent to C. albicans Y132), overexpressed C. albicans efflux pumps MDR1a or CDR1B and overexpressed H. sapiens wild-type CYP51 (HsCYP51) (Table 3) at 24 and 48 h with each assay performed in triplicate.
as §3

[7] = test system: S. cerevisiae Y2411 parent (control levels of wild-type ScCYP51); test: MIC, recombinant S. cerevisiae strain Y2411 parent; type: cell-based; settings: Saccharomyces cerevisiae
Experimental: as §4, §3

[8] = test system: S. cerevisiae Y570 overexpressing C. albicans ABC transporter CDR1B; test: MIC, recombinant S. cerevisiae strain Y570 CaCDR1B; type: cell-based; settings: SD medium pH 6.8, 30 °C; 80% inhibition of growth
Experimental: as §4, §3

[9] = test system: S. cerevisiae Y2760 overexpressed H. sapiens wild-type CYP51 (HsCYP51); test: MIC, recombinant S. cerevisiae strain Y2760 HsCYP51; type: cell-based; settings: Saccharomyces cerevisiae
Experimental: as §4
The HsCYP51 ORF (NP_000777.1) was codon harmonized (ch) using DNA 2.0 for expression in S. cerevisiae and synthesized by ATUM (Newark, Ca, USA). The 3′ end of the ORF was extended to encode EQKI of the ScErg11 C-terminus, followed by a GGR linker and a 6xHis tag. Strain Y2514 was prepared by transforming host strain Y1857 with a transformation cassette including the above construct together with the ScPGK transcription terminator and URA3 selection marker located downstream, bordered by upstream and downstream parts of ScPDR5 gene identical to sequences in ScErg11 over-expressing strain Y941. Strain Y2514 constitutively overexpressed HsCYP51ch-6xHis and URA3 from the ScPDR5 locus.
Strain Y2757 (Y2514, PDR15::HsCPRch-6xHis-LoxP-HIS1-LoxP) was prepared by co-expressing the cognate reductase HsCRP in strain Y2514. Codon harmonisation and synthesis of human NADPH-cytochrome P450 reductase isoform 2 (HsCPRch, NP_001369584.1) ORF was performed by ATUM. The gene was 3′ extended with a sequence encoding GGR-6xHIS. A transformation cassette was prepared by recombinant PCR to include the HsCPRch ORF with 657 nucleotides the ScPDR5 promoter upstream, and the ScPGK terminator followed by the LoxP flanked ScHIS1 selection marker downstream. ScPDR15 specific arms bordering the construct enabled the cassette to be integrated between the nucleotide 441 of the 5′ UTR and nucleotide 1 of the 3′ UTR in PDR15.
Strain Y2758 (Y2757 ΔHIS1) was made using the following steps. Strain Y2757 was transformed with the pSH69 pGAL1-cre plasmid (Euroscarf, Germany) via selection on hygromycin (75 μg mL^−1) containing YPD plates. A single hygromycin positive colony was inoculated in 1% yeast extract, 2% peptone and 2% of galactose broth and incubated for 16 hours at 30 °C with shaking. The diluted culture was then plated on YPD agar and replica-plated on YPD + hygromycin and SD-HIS dropout agar plates. Deletion of the HIS selection marker downstream of HsCPRch-6xHis in the PDR15 locus was confirmed in double His and hygromycin negative isolates by PCR and DNA sequence analysis.
The endogenous ScERG11 ORF in strain Y2758 was removed by transforming with a LoxP- ScHIS1 containing cassette with arms complementing from +387 nucleotides in the 5′UTR and −60 nucleotides in the 3′UTR of the ScERG11 locus, resulting in strain Y2760 (ADΔΔ PDR5::HsCYP51ch-6×HIS-URA3; PDR15::HsCPRch6×HIS-LoxP, ΔERG11-LoxP-HIS1-LoxP).
as §3

[10] = test system: S. cerevisiae Y2301 overexpressed ScCYP51 Y140F; test: MIC, recombinant S. cerevisiae strain Y2301 Y140F; type: cell-based; settings: Saccharomyces cerevisiae, pH 6.8, read-out: MIC Y2301 Y140F
Experimental: as §4, §3

[11] = test system: S. cerevisiae Y2513 overexpressed ScCYP51 Y140H; test: MIC, recombinant S. cerevisiae strain Y2513 Y140H; type: cell-based; settings: Saccharomyces cerevisiae, pH 6.8, read-out: MIC Y2513 Y140H
Experimental: as §4, §3

SMILES | MIC [1] | MIC [2] | IC50 [3] | Kd [4] | MIC [5] | MIC [8] | MIC [10] | MIC [11] | also measured
CCCCCOc1ccc(-c2cc(-c3ccc(C(=O)N[C@H]4C[C@@H](O)[C@@H](O)NC(=O)[C@@H]5[C@@H](O)[C@@H](C)CN5C(=O)[C@H]([C@H](O)CC(N)=O)NC(=O)[C@H]([C@H](O)[C@@H](O)c5ccc(O)c(OS(=O)(=O)O)c5)NC(=O)[C@@H]5C[C@@H](O)CN5C(=O)[C@H]([C@@H](C)O)NC4=O)cc3)no2)cc1 [Micafungin, reference compound] (X1-[Orn(4R-OH,5R-OH)]T[Hyp][hTyr(3S-OH,4S-OH,3'-OSO3H)][Gln(3R-OH)][Pro(3S-OH,4S-Me)]; lactam 1-C) |  |  |  |  | 0.125 µg/mL | 0.125 µg/mL | 0.125 µg/mL | 0.125 µg/mL | MIC ([6]; pH 6.8, read-out: MIC Y2300 ScCYP51): 0.125 µg/mL; MIC ([7]; pH 6.8, read-out: MIC Y2411 parent): 0.125 µg/mL; MIC ([9]; pH 6.8, read-out: MIC Y2760 HsCYP51): 0.125 µg/mL
CC[C@@H]([C@H](C)O)n1ncn(-c2ccc(N3CCN(c4ccc(OC[C@@H]5CO[C@@](Cn6cncn6)(c6ccc(F)cc6F)C5)cc4)CC3)cc2)c1=O [PCZ, posaconazole, reference compound] |  |  |  |  | < 0.03 µg/mL | 8 µg/mL | 0.06 µg/mL | < 0.03 µg/mL | MIC ([6]; SD medium pH 6.8, 30 °C, 80% inhibition of growth, read-out: MIC Y2300 ScCYP51): 0.06 µg/mL; MIC ([7]; SD medium pH 6.8, 30 °C, 80% inhibition of growth, read-out: MIC Y2411 parent): < 0.03 µg/mL; MIC ([9]; SD medium pH 6.8, 30 °C, 80% inhibition of growth, read-out: MIC Y2760 HsCYP51): 8 µg/mL

Now from value to compound, other results behind:

MIC [1] | MIC [2] | IC50 [3] | Kd [4] | SMILES | MIC [5] | MIC [8] | MIC [10] | MIC [11] | also measured
1 µg/mL (≈ 1.9 µM) | 2 µg/mL (≈ 3.81 µM) |  |  | O=C(Nc1ccc(Cl)cc1)Nc1ccc(C(=O)NCC(O)(Cn2cncn2)c2ccc(Cl)cc2)cc1 (centres unmarked) [12a, N-(2-(4-Chlorophenyl)-2-hydroxy-3-(1H-1,2,4-triazol-1-yl)propyl)-4-(3-(4-chlorophenyl)ureido)benzamide] |  |  |  |  | 
0.125 µg/mL (≈ 0.223 µM) | 0.125 µg/mL (≈ 0.223 µM) | 470 nM | 137 ± 14 nM | O=C(Nc1ccc(Cl)cc1)Nc1ccc(C(=O)NCC(O)(Cn2cncn2)c2ccc(Cl)cc2Cl)cc1 (centres unmarked) [12b, 4-(3-(4-Chlorophenyl)ureido)-N-(2-(2,4-dichlorophenyl)-2-hydroxy-3-(1H-1,2,4-triazol-1-yl)propyl)benzamide] |  |  |  |  | 
1 µg/mL (≈ 1.83 µM) | 1 µg/mL (≈ 1.83 µM) |  |  | O=C(NCC(O)(Cn1cncn1)c1ccc(Cl)cc1)c1ccc(NS(=O)(=O)c2ccc(Cl)cc2)cc1 (centres unmarked) [14a, N-(2-(4-Chlorophenyl)-2-hydroxy-3-(1H-1,2,4-triazol-1-yl)propyl)-4-((4-chlorophenyl)sulfonamido)benzamide] |  |  |  |  | 
0.25 µg/mL (≈ 0.43 µM) | 0.25 µg/mL (≈ 0.43 µM) | 780 nM | 94 ± 24 nM | O=C(NCC(O)(Cn1cncn1)c1ccc(Cl)cc1Cl)c1ccc(NS(=O)(=O)c2ccc(Cl)cc2)cc1 (centres unmarked) [14b, 4-((4-Chlorophenyl)sulfonamido)-N-(2-(2,4-dichlorophenyl)-2-hydroxy-3-(1H-1,2,4-triazol-1-yl)propyl)benzamide] |  |  |  |  | 
